Results published in patent publication US4638003A, “1-(4-alkylthiophenyl)-2-(substituted or unsubstituted piperazine-1-yl)-1,3-propanediol, pharmaceutical compositions containing them useful as antiarrhythmic and vasodilating agents” (Zambon S.p.A., priority 1983, dated 1987).
Where a name gives a salt, the structure may show the parent alone.

How the values were obtained:
[1] = test system: isolated rabbit aorta (vascular smooth muscle); assay: calcium antagonist activity on isolated rabbit aorta (CaCl2-induced contraction)
Description: Isolated rabbit aorta: ratio between the CaCl2 con-

anesthetized rat [2] = assay: antiarrhythmic activity against calcium chloride-induced arrhythmia after intravenous administration in anesthetized rat; assay type: in vivo; conditions: for ED50: Rattus norvegicus, iv, ten minutes before calcium chloride, read-out: ED50 (dose effective to antagonize the appearance of arrythmia in the 50% of the treated animals)
Description: The evaluation of the antiarrhythmic activity has been performed in the anesthetized rat with the method of M. Malinov et al. (Am. J. Physiol. 172, 743-746, 1953).
Arrythmia has been induced by administering (0.25 ml in 30 seconds) a saline solution containing 15% of calcium chloride into the jugular vein.
In these experimental conditions arrythmia occurs in the 90% of the animals. The compounds have been administered intravenously ten minutes before calcium chloride. The antiarrythmic activity has been referred as dose effective to antagonize the appearance of arrythmia in the 50% of the treated animals (ED50).

anesthetized rat [3] = assay: coronary dilating activity (coronary spasm induced by Vasopressin, T wave in E.C.G.) in anesthetized rat; assay type: in vivo; conditions: T wave restored in 50% of the animals within 2 minutes; for ED50: Rattus norvegicus, iv, 2 min
Excerpt: The evaluation of the coronary dilating activity has been performed with the method of O. Nieschultz, et al. (Arzneim. Forsch. 5, 680, 1955).

in vivo = assay type: in vivo; conditions: rat, in vivo, iv, ratio between the dose inducing bradycardia 20 and the effective anti-anginal dose 50; read-out: Therapeutic index
Excerpt: (§1) Furthermore, tolerability has been tested in the same experimental conditions in which it has been performed the pharmacological study in vivo.
(§2) Tolerability has been referred as effective dose to reduce heart rate of 20%. Therapeutic index has been determined as ratio between the dose inducing bradycardia 20 and the effective anti-anginal dose 50.

anesthetized rat [4] = assay: in vivo; assay type: in vivo; conditions: for Tolerability: Heart rate (-20%): i.v., compounds solubilized in 40% glyceril formal; for Therapeutic index: ratio between the dose inducing bradycardia 20 and the effective anti-anginal dose 50
Excerpt: as §1, §2

[5] = concentration in perfused liquid 10^-5 M
[6] = concentration in perfused liquid 10^-6 M
[7] = read-out: Coronary dilating activity ED50, i.v. 60 seconds after Vasopressin
[8] = i.v. 60 seconds after Vasopressin
[9] = i.v. 60 seconds after Vasopressin, read-out: Coronary dilating activity ED50

Row | SMILES | ratio between the CaCl2 concentration producing the 50% contraction in presence or in absence of various compounds [1, 5] | ratio between the CaCl2 concentration producing the 50% contraction in presence or in absence of various compounds [1, 6] | ED50 (anesthetized rat [3]; [7]) [µmol/kg] | selectivity ratio (in vivo) | Tolerability: Heart rate (-20%) (anesthetized rat [4]) [nmols/kg] | further results
1 | CSc1ccc([C@H](O)[C@H](CO)NC(C)CCc2ccccc2)cc1.Cl (relative stereo) [Z. 1411, (1S,2S)-1-(4-methylthiophenyl)-2-(1-methyl-3-phenylpropylamino)-1,3-propanediol hydrochloride] | 15 | 10 | 0.001 | 44 | 44 | ED50 (anesthetized rat [2]): 13 µmol/kg; number of protected rats/total number (anesthetized rat [2]; dose 8 μmols/Kg i.v.): 0/8; number of protected rats/total number (anesthetized rat [2]; dose 12 μmols/Kg i.v.): 4/8; number of protected rats/total number (anesthetized rat [2]; dose 16 μmols/Kg i.v.): 6/8
2 | CSc1ccc([C@H](O)[C@H](CO)NC(C)c2ccccc2)cc1 (relative stereo) [Z. 1413, (1S,2S,1'S*)-1-(4-methylthiophenyl)-2-(1-methylbenzylamino)-1,3-propanediol] |  |  |  |  | 230 | Coronary dilating activity ED50 (anesthetized rat [3]; [8]): 4.5 nmols/kg/i.v.; Therapeutic index (anesthetized rat [4]): 51
3 | COc1ccc(CCC(C)N[C@@H](CO)[C@@H](O)c2ccc(SC)cc2)cc1OC.Cl (relative stereo) [Z. 1434, (1S,2S)-1-(4-methylthiophenyl)-2-[1-methyl-3-(3,4-dimethoxyphenyl)-propylamino]-1,3propanediol hydrochloride] | 21 | 5 | 0.00045 | 93 | 42 | 
4 | Fc1ccc(C(c2ccc(F)cc2)N2CCN(C/C=C/c3ccccc3)CC2)cc1 [Flunarizine, reference compound] | 16 | 1 |  |  |  | ED50 (anesthetized rat [3]; [9]): 0.00048 µmol/kg
5 | COC(=O)C1=C(C)NC(C)=C(C(=O)OC)C1c1ccccc1[N+](=O)[O-] [Nifedipine, reference compound] |  |  |  |  |  | ED50 (anesthetized rat [3]; [9]): 0.00057 µmol/kg
6 | CC(Cc1ccccc1)NCCC(c1ccccc1)c1ccccc1 (centres unmarked) [Prenylamine, reference compound] | 62 | 12 | 0.00184 | 11 | 19 | 
7 | COc1ccc(CCN(C)CCCC(C#N)(c2ccc(OC)c(OC)c2)C(C)C)cc1OC (centres unmarked) [Verapamil, reference compound] |  |  | 0.00015 |  |  | ED50 (anesthetized rat [2]): 6 µmol/kg; number of protected rats/total number (anesthetized rat [2]; dose 4.4 μmols/Kg i.v.): 2/8; number of protected rats/total number (anesthetized rat [2]; dose 7.7 μmols/Kg i.v.): 5/8; number of protected rats/total number (anesthetized rat [2]; dose 11 μmols/Kg i.v.): 6/8
8 | CSc1ccc([C@@H](O)[C@H](CO)NCCC(c2ccccc2)c2ccccc2)cc1 [Z. 1373] | 86 | 9 | 0.0034 | 7 | 23 | 
9 | CSc1ccc([C@H](O)[C@H](CO)NCCC(c2ccccc2)c2ccccc2)cc1 [Z. 1382, (1S,2S)-1-(4-methylthiophenyl)-2-(3,3-diphenylpropylamino)-1,3-propanediol acid maleate] | 255 | 20 | 0.00084 | 20 | 17 | ED50 (anesthetized rat [2]): 19 µmol/kg; number of protected rats/total number (anesthetized rat [2]; dose 7.6 μmols/Kg i.v.): 1/8; number of protected rats/total number (anesthetized rat [2]; dose 13.4 μmols/Kg i.v.): 4/8; number of protected rats/total number (anesthetized rat [2]; dose 20 μmols/Kg i.v.): 3/8; number of protected rats/total number (anesthetized rat [2]; dose 27 μmols/Kg i.v.): 5/8
10 | CSc1ccc([C@H](O)[C@H](CO)NC(C)COc2ccccc2)cc1 (some centres unmarked) [Z. 1393] |  |  | 0.0038 | 9 | 35 | 
11 | CSc1ccc([C@H](O)[C@H](CO)NC(C)COc2ccccc2)cc1 (some centres unmarked) [Z. 1394] | 7 | 3 |  |  |  | 
12 | CSc1ccc([C@@H](O)[C@@H](CO)NC(C)COc2ccccc2)cc1 (some centres unmarked) [Z. 1407] |  |  | 0.0032 | 17 | 53 | 
13 | CSc1ccc([C@@H](O)[C@@H](CO)NC(C)COc2ccccc2)cc1 (some centres unmarked) [Z. 1408] |  |  |  |  | 76 | ED50 (anesthetized rat [2]): 35 µmol/kg; number of protected rats/total number (anesthetized rat [2]; dose 16 μmols/Kg i.v.): 1/8; number of protected rats/total number (anesthetized rat [2]; dose 32 μmols/Kg i.v.): 4/8; number of protected rats/total number (anesthetized rat [2]; dose 56 μmols/Kg i.v.): 6/8; Coronary dilating activity ED50 (anesthetized rat [3]; [8]): 3.7 nmols/kg/i.v.; Therapeutic index (anesthetized rat [4]): 21
14 | CSc1ccc([C@H](O)[C@H](CO)NCC(C)c2ccccc2)cc1.Cl (stereo partly drawn) [Z. 1409, (1S,2S)-1-(4-methylthiophenyl)-2-(2-phenylpropylamino)-1,3-propanediol hydrochloride] | 12 | 4 | 0.00084 | 87 | 73 | ED50 (anesthetized rat [2]): 43 µmol/kg; number of protected rats/total number (anesthetized rat [2]; dose 8 μmols/Kg i.v.): 0/8; number of protected rats/total number (anesthetized rat [2]; dose 16 μmols/Kg i.v.): 2/8; number of protected rats/total number (anesthetized rat [2]; dose 24 μmols/Kg i.v.): 3/8; number of protected rats/total number (anesthetized rat [2]; dose 48 μmols/Kg i.v.): 5/8
15 | CSc1ccc([C@H](O)[C@H](CO)NC(C)c2ccccc2)cc1 (some centres unmarked) [Z. 1414] |  |  | 0.004 |  | 100 | Therapeutic index (anesthetized rat [4]): 25
16 | CSc1ccc([C@H](O)[C@H](CO)NCC(c2ccccc2)c2ccccc2)cc1 [Z. 1415, (1S,2S)-1-(4-methylthiophenyl)-2-(2,2-diphenylethylamino)-1,3-propanediol] | 27 | 6 | 0.0029 | 17 | 49 | 
17 | CSc1ccc([C@H](O)[C@H](CO)N(C)C(C)CCc2ccccc2)cc1 (some centres unmarked) [Z. 1428] | 30 | 2 |  |  |  | 
18 | CSc1ccc([C@H](O)[C@H](CO)N2CCN(C(c3ccccc3)c3ccccc3)CC2)cc1 [Z. 1439] | 24 | 4 | 0.0033 | 7 | 23 | 
